# Data published in patent US12404295B2, “(Hetero)aryl-methyl-thio-beta-D-galactopyranoside derivatives” (Idorsia Pharmaceuticals Ltd, priority 2019, dated 2025).
# pIC50: −log10 of the molar value. Where two headings read alike, the source gives them in different places.
# What was measured:
# [1] = target: human Gal-1 (hGal-1) (Homo sapiens (Human), UniProt P09382); assay: competitive binding assay: biotinylated hGal-1 binding to microplate-adsorbed asialofetuin (ASF); conditions: Table 15; read-out: IC50 (Galectin-1 inhibition)
# human Gal-1 (hGal-1), sequence (P09382 whole entry): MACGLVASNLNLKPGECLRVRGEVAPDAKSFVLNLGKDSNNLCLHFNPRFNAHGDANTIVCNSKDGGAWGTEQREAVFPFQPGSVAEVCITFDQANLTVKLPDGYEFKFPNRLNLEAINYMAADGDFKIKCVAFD
# Experimental: Inhibition data of the epimers R and S of selected Examples are also listed.
# (§1) Evaluation of Compound Inhibitory Activity (IC50)
# The inhibitory activity of compounds is determined in competitive binding assays. This spectrophotometric assay measures the binding of biotinylated human Gal-3 (hGal-3) or human Gal-1 (hGal-1), respectively, to a microplate-adsorbed glycoprotein, asialofetuin (ASF) (Proc Natl Acad Sci USA. 2013 Mar. 26; 110(13):5052-7.).
# Briefly, compounds are serially diluted in DMSO (working dilutions). ASF-coated 384 well plates are supplemented with 22.8 μL/well of biotinylated hGal-3 or hGal-1 in assay buffer (i.e. 300-1000 ng/mL biotinylated hGal-3 or hGal-1) to which 1.2 μL of compound working dilutions are added and mixed.
# (§2) Plates are incubated for 3 hours at 4° C., then washed with cold assay buffer (3×50 uL), incubated for 1 hour with 25 μL/well of a streptavidin-peroxidase solution (diluted in assay buffer to 80 ng/mL) at 4° C., followed by further washing steps with assay buffer (3×50 uL). Finally, 25 μL/well of ABTS substrate is added.
# (§3) The calculated IC50 values may fluctuate depending on the daily assay performance. Fluctuations of this kind are known to those skilled in the art. IC50 values from several measurements are given as mean values.
# [2] = target: human Gal-3 (hGal-3) (Homo sapiens (Human), UniProt P17931); assay: competitive binding assay: biotinylated hGal-3 binding to microplate-adsorbed asialofetuin (ASF)
# human Gal-3 (hGal-3), sequence (P17931 whole entry): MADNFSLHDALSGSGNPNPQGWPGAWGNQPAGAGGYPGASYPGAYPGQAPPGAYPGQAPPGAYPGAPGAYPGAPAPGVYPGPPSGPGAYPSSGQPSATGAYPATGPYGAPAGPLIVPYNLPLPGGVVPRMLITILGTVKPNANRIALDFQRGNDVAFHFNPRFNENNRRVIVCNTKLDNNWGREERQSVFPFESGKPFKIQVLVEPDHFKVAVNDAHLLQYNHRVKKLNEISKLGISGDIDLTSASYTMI
# Experimental: If not explicitly mentioned otherwise, the inhibition data refer to the binding of biotinylated human Gal-3 (hGal-3).
# as §1
# The inhibitory activity of compounds is determined in competitive binding assays.
# Briefly, compounds are serially diluted in DMSO (working dilutions).
# as §2, §3
# [3] = Gal-3 inhibition, binding of biotinylated hGal-3 to ASF, mean values, read-out: IC50
pIC50 [1],"pIC50 [2, 3]","pIC50 ([2]; Table 11, read-out: IC50 (Gal-3 inhibition))",Compound
5.14,6.74,,"Cc1c(F)cccc1[C@H](S[C@@H]1O[C@H](CO)[C@H](O)[C@H](n2cc(-c3cc(F)c(F)c(F)c3)nn2)[C@H]1O)C(C)(C)O (single isomer, unassigned) [Example 2.31.114R.]"
4.25,5.54,,"COCC(S[C@@H]1O[C@H](CO)[C@H](O)[C@H](n2cc(-c3cc(F)c(F)c(F)c3)nn2)[C@H]1O)c1ccccc1 (stereo partly drawn) [Example 2.30.100.OMe, (2R,3R,4S,5R,6S)-2-(Hydroxymethyl)-6-((2-methoxy-1-phenylethyl)thio)-4-(4-(3,4,5-trifluorophenyl)-1H-1,2,3-triazol-1-yl)tetrahydro-2H-pyran-3,5-diol, reference compound]"
5.76,6.40,,"CC(C)c1ccccc1C(CO)S[C@@H]1O[C@H](CO)[C@H](O)[C@H](n2cc(-c3cc(F)c(F)c(F)c3)nn2)[C@H]1O (stereo partly drawn) [Example 2.30.105., (2S,3R,4S,5R,6R)-2-((2-Hydroxy-1-(2-isopropylphenyl)ethyl)thio)-6-(hydroxymethyl)-4-(4-(3,4,5-trifluorophenyl)-1H-1,2,3-triazol-1-yl)tetrahydro-2H-pyran-3,5-diol]"
5.43,5.72,,"CC(C)(O)C(S[C@@H]1O[C@H](CO)[C@H](O)[C@H](n2cc(-c3cc(F)c(F)c(F)c3)nn2)[C@H]1O)c1ccccc1 (stereo partly drawn) [Example 2.31.100., (2S,3R,4S,5R,6R)-2-((2-Hydroxy-2-methyl-1-phenylpropyl)thio)-6-(hydroxymethyl)-4-(4-(3,4,5-trifluorophenyl)-1H-1,2,3-triazol-1-yl)tetrahydro-2H-pyran-3,5-diol]"
5.67,6.77,,"Cc1ccccc1C(S[C@@H]1O[C@H](CO)[C@H](O)[C@H](n2cc(-c3cc(F)c(F)c(F)c3)nn2)[C@H]1O)C(C)(C)O (stereo partly drawn) [Example 2.31.102., (2S,3R,4S,5R,6R)-2-((2-Hydroxy-2-methyl-1-(o-tolyl)propyl)thio)-6-(hydroxymethyl)-4-(4-(3,4,5-trifluorophenyl)-1H-1,2,3-triazol-1-yl)tetrahydro-2H-pyran-3,5-diol]"
5.85,6.92,,"Cc1ccccc1[C@@H](S[C@@H]1O[C@H](CO)[C@H](O)[C@H](n2cc(-c3cc(F)c(F)c(F)c3)nn2)[C@H]1O)C(C)(C)O [Example 2.31.102R., (2S,3R,4S,5R,6R)-2-(((R)-2-Hydroxy-2-methyl-1-(o-tolyl)propyl)thio)-6-(hydroxymethyl)-4-(4-(3,4,5-trifluorophenyl)-1H-1,2,3-triazol-1-yl)tetrahydro-2H-pyran-3,5-diol]"
5.16,5.35,,"Cc1ccccc1[C@H](S[C@@H]1O[C@H](CO)[C@H](O)[C@H](n2cc(-c3cc(F)c(F)c(F)c3)nn2)[C@H]1O)C(C)(C)O [Example 2.31.102S., (2S,3R,4S,5R,6R)-2-(((S)-2-Hydroxy-2-methyl-1-(o-tolyl)propyl)thio)-6-(hydroxymethyl)-4-(4-(3,4,5-trifluorophenyl)-1H-1,2,3-triazol-1-yl)tetrahydro-2H-pyran-3,5-diol]"
5.76,,,"Cc1nc(C(S[C@@H]2O[C@H](CO)[C@H](O)[C@H](n3cc(-c4cc(F)c(F)c(F)c4)nn3)[C@H]2O)C(C)(C)O)c(C)s1 (stereo partly drawn) [Example 2.31.123., (2S,3R,4S,5R,6R)-2-((1-(2,5-Dimethylthiazol-4-yl)-2-hydroxy-2-methylpropyl)thio)-6-(hydroxymethyl)-4-(4-(3,4,5-trifluorophenyl)-1H-1,2,3-triazol-1-yl)tetrahydro-2H-pyran-3,5-diol]"
5.92,,,"Cc1nc([C@@H](S[C@@H]2O[C@H](CO)[C@H](O)[C@H](n3cc(-c4cc(F)c(F)c(F)c4)nn3)[C@H]2O)C(C)(C)O)c(C)s1 [Example 2.31.123R., (2S,3R,4S,5R,6R)-2-(((R)-1-(2,5-Dimethylthiazol-4-yl)-2-hydroxy-2-methylpropyl)thio)-6-(hydroxymethyl)-4-(4-(3,4,5-trifluorophenyl)-1H-1,2,3-triazol-1-yl)tetrahydro-2H-pyran-3,5-diol]"
4.53,,,"Cc1nc([C@H](S[C@@H]2O[C@H](CO)[C@H](O)[C@H](n3cc(-c4cc(F)c(F)c(F)c4)nn3)[C@H]2O)C(C)(C)O)c(C)s1 [Example 2.31.123S., (2S,3R,4S,5R,6R)-2-(((S)-1-(2,5-Dimethylthiazol-4-yl)-2-hydroxy-2-methylpropyl)thio)-6-(hydroxymethyl)-4-(4-(3,4,5-trifluorophenyl)-1H-1,2,3-triazol-1-yl)tetrahydro-2H-pyran-3,5-diol]"

# The next lines start with the compound.
Compound,pIC50 [1],"pIC50 [2, 3]","pIC50 ([2]; Table 11, read-out: IC50 (Gal-3 inhibition))"
"CO[C@@H]1[C@@H](n2cc(-c3cc(F)c(F)c(F)c3)nn2)[C@@H](O)[C@@H](CO)O[C@H]1S[C@@H](c1nccc(Cl)c1Cl)C1(O)CCC(F)(F)CC1 (single isomer, unassigned) [Example 2.44.143R.I.]",6.07,,7.15
"OCC(S[C@@H]1O[C@H](CO)[C@H](O)[C@H](n2cc(-c3cccc(F)c3)nn2)[C@H]1O)c1ccccc1Br (stereo partly drawn) [Example 1.30.101., (2S,3R,4S,5R,6R)-2-((1-(2-Bromophenyl)-2-hydroxyethyl)thio)-4-(4-(3-fluorophenyl)-1H-1,2,3-triazol-1-yl)-6-(hydroxymethyl)tetrahydro-2H-pyran-3,5-diol]",5.24,5.77,
"CO[C@@H]1[C@@H](n2cc(-c3cc(F)c(F)c(F)c3)nn2)[C@@H](O)[C@@H](CO)O[C@H]1S[C@H](c1ccccc1C(F)(F)F)[C@]1(O)CCOC(C)(C)C1 [Example 2.43.112RS.I., (2R,3R,4S,5R,6S)-6-(((R)-((S)-4-Hydroxy-2,2-dimethyltetrahydro-2H-pyran-4-yl)(2-(trifluoromethyl)phenyl)methyl)thio)-2-(hydroxymethyl)-5-methoxy-4-(4-(3,4,5-trifluorophenyl)-1H-1,2,3-triazol-1-yl)tetrahydro-2H-pyran-3-ol]",5.89,,
"OC[C@H]1O[C@@H](S[C@H](c2ccccc2Cl)C2(O)CCC(F)(F)CC2)[C@H](O)[C@@H](n2cc(-c3cc(F)c(F)c(F)c3)nn2)[C@H]1O [Example 2.44.111R., (2S,3R,4S,5R,6R)-2-(((R)-(2-Chlorophenyl)(4,4-difluoro-1-hydroxycyclohexyl)methyl)thio)-6-(hydroxymethyl)-4-(4-(3,4,5-trifluorophenyl)-1H-1,2,3-triazol-1-yl)tetrahydro-2H-pyran-3,5-diol]",5.97,,
"OC[C@H]1O[C@@H](S[C@@H](c2ccccc2Cl)C2(O)CCC(F)(F)CC2)[C@H](O)[C@@H](n2cc(-c3cc(F)c(F)c(F)c3)nn2)[C@H]1O [Example 2.44.111S., (2S,3R,4S,5R,6R)-2-(((S)-(2-Chlorophenyl)(4,4-difluoro-1-hydroxycyclohexyl)methyl)thio)-6-(hydroxymethyl)-4-(4-(3,4,5-trifluorophenyl)-1H-1,2,3-triazol-1-yl)tetrahydro-2H-pyran-3,5-diol]",4.32,,
"CC(C)Cc1c([C@@H](S[C@@H]2O[C@H](CO)[C@H](O)[C@H](n3cc(-c4cc(F)c(F)c(F)c4)nn3)[C@H]2O)C2(O)CCC(F)(F)CC2)noc1C1CC1 [Example 2.44.131 R., (2S,3R,4S,5R,6R)-2-(((R)-(5-Cyclopropyl-4-isobutylisoxazol-3-yl)(4,4-difluoro-1-hydroxycyclohexyl)methyl)thio)-6-(hydroxymethyl)-4-(4-(3,4,5-trifluorophenyl)-1H-1,2,3-triazol-1-yl)tetrahydro-2H-pyran-3,5-diol]",7.05,,
"CC(C)Cc1c(C(S[C@@H]2O[C@H](CO)[C@H](O)[C@H](n3cc(-c4cc(F)c(F)c(F)c4)nn3)[C@H]2O)C2(O)CCC(F)(F)CC2)noc1C1CC1 (stereo partly drawn) [Example 2.44.131., (2S,3R,4S,5R,6R)-2-(((5-Cyclopropyl-4-isobutylisoxazol-3-yl)(4,4-difluoro-1-hydroxycyclohexyl)methyl)thio)-6-(hydroxymethyl)-4-(4-(3,4,5-trifluorophenyl)-1H-1,2,3-triazol-1-yl)tetrahydro-2H-pyran-3,5-diol]",6.66,,
"CO[C@@H]1[C@@H](n2cc(-c3cc(F)c(F)c(F)c3)nn2)[C@@H](O)[C@@H](CO)O[C@H]1SC(c1ncccc1C)C1(O)CCC2(CCOCC2)CC1 (stereo partly drawn) [Example 2.72.126.I., 9-((((2S,3R,4S,5R,6R)-5-Hydroxy-6-(hydroxymethyl)-3-methoxy-4-(4-(3,4,5-trifluorophenyl)-1H-1,2,3-triazol-1-yl)tetrahydro-2H-pyran-2-yl)thio)(3-methylpyridin-2-yl)methyl)-3-oxaspiro[5.5]undecan-9-ol]",6.14,,
"CO[C@@H]1[C@@H](n2cc(-c3cnc(F)c(C)c3)nn2)[C@@H](O)[C@@H](CO)O[C@H]1SC(c1ncccc1C)C1(O)CCC(F)(F)CC1 (stereo partly drawn) [Example 24.44.126.I, (2R,3R,4S,5R,6S)-6-(((4,4-Difluoro-1-hydroxycyclohexyl)(3-methylpyridin-2-yl)methyl)thio)-4-(4-(6-fluoro-5-methylpyridin-3-yl)-1H-1,2,3-triazol-1-yl)-2-(hydroxymethyl)-5-methoxytetrahydro-2H-pyran-3-ol]",6.80,,
